Experimental data taken from ChEMBL document CHEMBL5442334, “ASAP - In vitro safety pharmacology profile” (2024).

Columns and labels:
Conditions in all cases: Test compound concentration 10.0 uM
[1] = target: T1, Muscarinic acetylcholine receptor M1 (Homo sapiens) (UniProt P11229); experiment: SafetyScreen: M1 Human Acetylcholine (Muscarinic) GPCR Binding Antagonist Radioligand LeadHunter Assay, catalogue number: 91
T1 sequence (whole entry): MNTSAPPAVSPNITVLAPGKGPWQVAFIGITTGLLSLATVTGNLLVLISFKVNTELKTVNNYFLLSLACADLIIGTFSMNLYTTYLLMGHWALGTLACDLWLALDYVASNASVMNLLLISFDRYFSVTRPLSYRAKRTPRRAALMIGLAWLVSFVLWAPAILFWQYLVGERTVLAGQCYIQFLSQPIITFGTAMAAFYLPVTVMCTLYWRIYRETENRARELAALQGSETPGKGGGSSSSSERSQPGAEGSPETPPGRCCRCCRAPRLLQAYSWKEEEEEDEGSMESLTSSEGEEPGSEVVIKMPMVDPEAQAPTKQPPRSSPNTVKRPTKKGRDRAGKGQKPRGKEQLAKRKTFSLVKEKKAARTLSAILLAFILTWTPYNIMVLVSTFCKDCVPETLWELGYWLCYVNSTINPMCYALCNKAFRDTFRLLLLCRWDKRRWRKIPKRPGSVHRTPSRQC

[2] = target: T2, Glucocorticoid receptor (Homo sapiens) (UniProt P04150); experiment: SafetyScreen: GR Human Glucocorticoid NHR Binding Agonist Radioligand LeadHunter Assay, catalogue number: 469
T2 sequence (whole entry): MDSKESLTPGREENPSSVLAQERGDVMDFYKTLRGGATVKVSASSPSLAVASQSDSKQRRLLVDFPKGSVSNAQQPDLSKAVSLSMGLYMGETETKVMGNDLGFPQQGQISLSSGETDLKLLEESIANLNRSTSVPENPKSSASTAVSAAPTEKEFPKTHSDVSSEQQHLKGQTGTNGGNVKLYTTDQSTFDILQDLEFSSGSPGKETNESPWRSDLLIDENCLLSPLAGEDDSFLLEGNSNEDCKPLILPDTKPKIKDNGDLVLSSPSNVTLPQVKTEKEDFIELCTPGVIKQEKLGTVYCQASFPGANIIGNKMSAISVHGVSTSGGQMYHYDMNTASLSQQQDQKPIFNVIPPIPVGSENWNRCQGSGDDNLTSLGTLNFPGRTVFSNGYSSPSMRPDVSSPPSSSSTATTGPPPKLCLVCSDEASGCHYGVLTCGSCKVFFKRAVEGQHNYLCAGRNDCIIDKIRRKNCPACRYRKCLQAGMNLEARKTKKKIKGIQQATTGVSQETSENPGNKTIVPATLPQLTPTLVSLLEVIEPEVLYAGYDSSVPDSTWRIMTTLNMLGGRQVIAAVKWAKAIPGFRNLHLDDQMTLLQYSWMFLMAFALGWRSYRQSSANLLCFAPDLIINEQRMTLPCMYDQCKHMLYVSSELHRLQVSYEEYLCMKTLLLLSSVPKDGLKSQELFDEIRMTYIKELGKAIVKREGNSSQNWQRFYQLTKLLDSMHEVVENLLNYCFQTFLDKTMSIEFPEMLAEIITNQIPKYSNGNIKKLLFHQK

[3] = target: Tyrosine-protein kinase Lck (Homo sapiens) (UniProt P06239); experiment: SafetyScreen: Lck Human TK Kinase Enzymatic TR-FRET [Km ATP] LeadHunter Assay, catalogue number: 2906; type: functional
[4] = target: Histamine H2 receptor (Homo sapiens) (UniProt P25021); experiment: SafetyScreen: H2 Human Histamine GPCR Binding Antagonist Radioligand LeadHunter Assay, catalogue number: 1208
Sequence of Histamine H2 receptor (Homo sapiens) (P25021 whole entry): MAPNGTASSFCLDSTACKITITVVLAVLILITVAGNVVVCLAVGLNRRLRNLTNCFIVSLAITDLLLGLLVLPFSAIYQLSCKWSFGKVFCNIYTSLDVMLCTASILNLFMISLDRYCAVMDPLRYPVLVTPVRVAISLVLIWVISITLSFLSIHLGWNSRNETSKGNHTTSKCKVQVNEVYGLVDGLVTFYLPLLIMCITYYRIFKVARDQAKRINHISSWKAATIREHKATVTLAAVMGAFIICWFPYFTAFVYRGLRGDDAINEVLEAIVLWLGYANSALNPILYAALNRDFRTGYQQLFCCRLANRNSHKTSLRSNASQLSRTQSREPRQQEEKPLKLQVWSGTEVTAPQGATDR

Sequence of Tyrosine-protein kinase Lck (Homo sapiens) (P06239 2-509 limits assumed): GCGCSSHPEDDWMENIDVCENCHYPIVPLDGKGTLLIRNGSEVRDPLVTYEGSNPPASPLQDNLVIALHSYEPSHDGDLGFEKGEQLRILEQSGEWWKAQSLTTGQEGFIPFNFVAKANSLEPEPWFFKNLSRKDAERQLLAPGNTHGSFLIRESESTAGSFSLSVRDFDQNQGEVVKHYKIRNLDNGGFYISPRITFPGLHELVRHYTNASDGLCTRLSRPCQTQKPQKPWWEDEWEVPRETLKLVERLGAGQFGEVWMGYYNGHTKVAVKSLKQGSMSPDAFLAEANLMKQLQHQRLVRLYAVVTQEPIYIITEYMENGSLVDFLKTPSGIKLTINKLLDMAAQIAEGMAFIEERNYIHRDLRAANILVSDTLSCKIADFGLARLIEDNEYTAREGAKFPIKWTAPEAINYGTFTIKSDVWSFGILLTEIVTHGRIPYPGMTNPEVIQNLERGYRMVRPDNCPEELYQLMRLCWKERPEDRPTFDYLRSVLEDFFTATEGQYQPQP

Structure (SMILES): CC(C)[C@@H](Nc1ncnc2[nH]c(-c3cnn(C)c3C#N)cc12)c1ccc2c(n1)OCCO2
- inhibition [1]: 8%
- inhibition [2]: 22%
- inhibition [3]: 34%

Structure (SMILES): CNC(=O)Cn1cc(-c2cc3c(N[C@@H](c4ccc5c(c4)S(=O)(=O)CCC5)C(C)C)ncnc3[nH]2)cn1
- inhibition [1]: 9%
- inhibition [2]: 5%
- inhibition [3]: 30%

Structure (SMILES): Cn1ncc(-c2cc3c(N[C@@H](c4ccc5c(n4)OCCO5)C(C)(C)C)ncnc3[nH]2)c1C#N
- inhibition [4]: -10%
- inhibition [1]: 13%
- inhibition [2]: 28%
- inhibition [3]: 47%

Structure (SMILES): C[C@H](C(=O)O)[C@@H](NC(=O)c1ncnc2[nH]ccc12)c1ccc(Br)cc1
- inhibition [1]: -1%
- inhibition [2]: 3%
- inhibition [3]: 4%

Structure (SMILES): Cc1nn(C)cc1-c1cc2c(N[C@H](c3ccc4c(c3)S(=O)(=O)CCC4)C(C)C)ncnc2[nH]1
- inhibition [4]: -4%
- inhibition [1]: 11%
- inhibition [2]: 7%
- inhibition [3]: 33%

Structure (SMILES): COc1ccc([C@H](Cc2nnn[nH]2)NC(=O)c2ncnc3[nH]ccc23)cc1
- inhibition [1]: -4%
- inhibition [2]: 1%
- inhibition [3]: 4%

Structure (SMILES): CC(C)[C@@H](Nc1ncnc2[nH]c(C(=O)N[C@@H]3CCN(C)C3)cc12)c1ccc2c(c1)S(=O)(=O)CCC2
- inhibition [4]: -9%
- inhibition [1]: 17%
- inhibition [2]: 11%
- inhibition [3]: 15%

Structure (SMILES): CNCc1cc(-c2cc3c(N[C@@H](c4ccc5c(c4)S(=O)(=O)CCC5)C(C)C)ncnc3[nH]2)co1
- inhibition [4]: -3%
- inhibition [1]: 47%
- inhibition [2]: 21%
- inhibition [3]: 68%

Structure (SMILES): CC(C)[C@H](Nc1ncnc2[nH]c(-c3cnn(C)c3C#N)cc12)c1ccc2c(n1)OCCO2
- inhibition [1]: 7%
- inhibition [2]: 11%
- inhibition [3]: 20%

Structure (SMILES): CC(C)[C@H](Nc1ncnc2[nH]ccc12)c1ccc2c(c1)S(=O)(=O)CCC2
- inhibition [4]: -6%
- inhibition [1]: 19%
- inhibition [2]: 10%
- inhibition [3]: 10%
